Structures can show the parent of a compound that is named as a salt. Where two headings read alike, the source gives them in different places.
How the values were obtained:
[1] = apparent dissociation constant of putative Ca*ligand complex from potentiometric Ca^2+ activity; type: physicochemical; settings: 20 mM Hepes, pH 7.0 to 7.6, dilutions with 0.15 mM of NaCl, average of n determinations; for Kd: read-out: kd ± S.D.
Description: Bovine plasma deficient in vitamin K dependent coagulation factors and thromboplastin from rabbit brain were the corresponding components from PK-reagent GHI 129 detailed above. Ca^2+ activity and pH in plasma were determined potentiometrically with an ICA 2 (Radiometer, Copenhagen, Denmark) apparatus.
In order to identify compounds that could function as buffers for Ca^2+ at physiological levels, i.e. at about 1.3 mM of Ca^2+, water soluble compounds, either with reported dissociation constants in the range of 0.5 to 5 mM or otherwise appearing interesting, were experimentally investigated. Below, these compounds are referred to as Ca^2+ ligands or simply ligands. Experiments described below were performed to deduce the apparent dissociation constants under physiological like conditions and at ligand concentrations meaningful for Ca^2+ buffering.
Solution of 200 mM of ligand containing 20 mM of Hepes was adjusted to pH 7.4 and mixed with an equal volume of 100 mM of CaCl2 solution. These mixtures were diluted 1:2, 1:4, 1:8 and 1:16 with […]. […] From the experimentally determined Ca^2+ activity and the stoikiometric levels of ligand and Ca^2+, the apparent dissociation constant for a putative Ca*ligand complex was determined as the average of all available data.

[2] = cited from earlier work
[3] = addition of CaCl2 solution to anti-coagulant solutions to reach physiological Ca^2+; type: physicochemical; settings: solutions of the Ca^2+ binding substance plus CaCl2
From the text: This gave rise to the idea that these substances could perform as anticoagulants also at near physiological levels of Ca^2+ activity. […] This was possible with iso-citrate but not with citrate. […] The following therefore only describes experiments with iso-citrate.

[4] = tested on: prothrombin complex (coagulation factors VII, X and II); assay: coagulation time in prothrombin complex (PK) system with added citrate or iso-citrate; type: biochemical
Description: Activated partial thromboplastin time (APTT), prothrombin time (PT), prothrombin complex, (PK), assay, factor VIII and fibrin D-dimer were determined in compliance with manufacturers recommendations using the following reagents; PTT Automate, Diagnostica Stago, Asnieres-sur-Seine, France; Thromborel® S, Behring Diagnostics GmbH, Marburg, Germany; PK-reagent GHI 129, Global Hemostasis Institute MGR, Linköping, Sweden; and Coamatic® Factor VIII, Chromogenix, Mölndal, Sweden. The tests were performed on an Automated Coagulation Laboratory instrument, ACL, model 810 (Instrumentation Laboratory, Milan, Italy).
Coagulation analysis of blood and blood plasma are performed in many different ways. Most such analysis have the following in common. […] This Ca^2+ buffer capacity was determined in a system composed of sample, bovine plasma deficient in vitamin K dependent coagulation factors and rabbit brain thromboplastin. […] For each level of addition, the calcium ion buffering capacity of the analytical system was determined. The buffer capacity was determined at Ca^2+ activity in the range of 1 to 4 mM.
The assay response of the system described in Example 5 is investigated. […] The coagulation time is recorded. And after compacting of the coagulum by centrifugation for 3 minutes at 10,000×g, the Ca2+ activity is determined. […]

[5] = in 0.1 M KNO3, read-out: published estimate
[6] = prior art, at physiological conditions
[7] = in 0.1 M NaClO4, read-out: published estimate

Nc1nc(N)c2[nH]cnc2n1 [2,6-diaminopurine]
Kd [1]: 50 ± 24 mM
Kd [2, 5]: 1.6 mM

O=C(O)CN(CCN(CC(=O)O)CC(=O)O)CC(=O)O [EDTA]
apparent dissociation constant of Ca^2+ complexes [2, 6]: considerably tighter

Nc1ncnc2nc[nH]c12 [adenine]
Kd [1]: 70 ± 40 mM
Kd [2, 5]: 1.1 mM

O=C(O)CC(O)(CC(=O)O)C(=O)O [citrate, Tri-sodium citrate]
Kd [1]: 0.5 ± 0.05 mM
making solutions with physiological levels of Ca^2+ by adding CaCl2 solution [3]: formed precipitates
inhibition of coagulation (coagulation time) in PK system ([4]; 5, 10 or 20 mM added, Ca^2+ activity 0.7 to 9 mM): inhibit coagulation at all Ca^2+ activity levels
inhibitory effect on coagulation time per molar unit, citrate versus iso-citrate ([4]; Ca^2+ activity of 1.5, FIG. 8): about twice as inhibitory as iso-citrate per molar unit
Kd ([2]; medium not given, read-out: published estimate): 0.58 mM
Kd ([2]; prior art, at physiological conditions, read-out: apparent dissociation constant of Ca^2+ complexes): ~0.4 mM

CC(C)(C(=O)O)C(=O)O [dimethylmalonate, dimethylmalonic acid]
Kd [2, 7]: 30.2 mM

O=C(O)CNCC(=O)O [iminodiacetate]
Kd [1]: 29 ± 12 mM
Kd ([2]; in 1 M KNO3, read-out: published estimate): 8.1 mM

CC(C(=O)O)C(=O)O [methylmalonate, methylmalonic acid]
Kd [1]: 22 ± 3 mM
Kd [2, 7]: 22.4 mM

O=C(O)C(=O)O [oxalate, oxalic acid]
kd ± S.D. [1]: oxalate (precipitated)
Kd [2, 5]: 5 mM
apparent dissociation constant of Ca^2+ complexes [2, 6]: considerably tighter

O=C(O)c1ccccc1C(=O)O [phthalate, phthalic acid]
Kd [1]: 26 ± 73 mM
Kd ([2]; in 0.1 M KCl, read-out: published estimate): 3.9 mM

O=C(O)/C=C(\CC(=O)O)C(=O)O [trans-aconitate, trans-aconitic acid]
Kd [1]: 29 ± 53 mM

O=C(O)CC(CC(=O)O)C(=O)O [tricarballylate, tricarballylic acid]
Kd [1]: 22 ± 53 mM

Reference: patent US6368785B1 (Global Hemostasis Institute MGR AB, priority 1997, dated 2002)
